Structures are written as SMILES. Where only a bound is given, the exact number is not on record here.

The first test has as its target T1, olfactory receptor OR5K1 (Homo sapiens, UniProt Q8NHB7).
T1 construct: expressed in transfected cells; host or cells: HEK293
T1 sequence (Q8NHB7 1-308): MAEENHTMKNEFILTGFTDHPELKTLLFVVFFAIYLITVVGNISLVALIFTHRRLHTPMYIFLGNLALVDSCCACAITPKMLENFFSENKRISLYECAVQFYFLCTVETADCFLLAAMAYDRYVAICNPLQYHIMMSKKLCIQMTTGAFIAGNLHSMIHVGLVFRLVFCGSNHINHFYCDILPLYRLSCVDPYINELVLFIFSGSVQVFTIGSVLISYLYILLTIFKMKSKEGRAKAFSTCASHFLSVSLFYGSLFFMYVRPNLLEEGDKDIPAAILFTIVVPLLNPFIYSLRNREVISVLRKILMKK
Nature of the test: Antagonistic activity against OR5K1: inhibition of the receptor response to 2,6-dimethylpyrazine (luciferase assay, HEK293 cells). In kind it is cell-based. The note with it: 2,6-dimethylpyrazine 1 mM + test substance 300 μM, cytotoxic flavoring agents re-evaluated at 333 μM 2,6-dimethylpyrazine + 100 μM test substance, read-out: Inhibition rate (receptor response-inhibiting rate). How it is done: The receptor response-inhibiting rate of a test substance was calculated as follows. The receptor activity (X-Y) by stimulation with 2,6-dimethylpyrazine alone was determined by subtracting the luminescence value (Y) in cells to which the receptor was introduced but were not stimulated with 2,6-dimethylpyrazine from the luminescence value (X) derived from firefly luciferase induced by stimulation with 2,6-dimethylpyrazine alone. Similarly, the receptor activity (Z-Y) in the presence of a test substance was determined by subtracting the luminescence value (Y) in cells not stimulated with 2,6-dimethylpyrazine from the luminescence value (Z) stimulated with a mixture of 2,6-dimethylpyrazine and the test substance. The reduction rate of the receptor activity (Z-Y) in the presence of a test substance to the receptor activity (X-Y) by stimulation with 2,6-dimethylpyrazine alone was calculated by the following computation expression: Inhibition rate (%)={1−(Z−Y)/(X−Y)}×100, to determine the receptor response-inhibiting rate of the test substance. In the measurement, multiple independent experiments were performed in duplicate, and the average of each experiment was used.
By inhibition is commonly meant the change of the read-out against control, counted positive when it falls. Regarding `O=C1CCCCCCCCCCCC(=O)OCCO1` [1,4-dioxacycloheptadecane-5,17-dione], the inhibition at 300 µM is not below 40%. Take `CC(=O)C1=C(C)C2CC3(C1)C(C)CCC3C2(C)C` (stereo not shown) [1-(2,3,4,7,8,8a-hexahydro-3,6,8,8-tetramethyl-1H-3a,7-methanoazulen-5-yl)-ethanone]: the inhibition at 300 µM was not below 50%.

On to `CC=CC(=O)C1=C(C)C=CCC1(C)C` [1-(2,6,6-trimethyl-1,3-cyclohexadien-1-yl)-2-buten-1-one], for which the inhibition at 300 µM is not below 40%. On the same count and under the same terms, the value for `CCC(O)COC1CCCCC1C(C)(C)C` (stereo not shown) [1-(2-tert-butylcyclohexyloxy)-2-butanol] was not below 75%; that for `C=CCCC(=O)C1=CCCC(C)(C)C1` [1-(5,5-dimethyl-1-cyclohexen-1-yl)-4-penten-1-one] was not below 40%.

As for `CC(=O)c1cc2c(cc1C)C(C)(C)C(C)CC2(C)C` (stereo not shown) [1-(5,6,7,8-tetrahydro-3,5,5,6,8,8-hexamethyl-2-naphthalenyl)-ethanone], the inhibition at 300 µM was not below 75%.

As for `C=CCc1ccc(O)c(OC)c1` [1-allyl-3-methoxy-4-hydroxybenzene], the inhibition at 300 µM was not below 40%.

As for `CC(C=O)C1CCCCC1` (stereo not shown) [2-cyclohexylpropanal], the inhibition at 300 µM is not below 50%. Regarding `CCC(=CCC1CC=C(C)C1(C)C)CO` (stereo not shown) [2-ethyl-4-(2,2,3-trimethyl-3-cyclopenten-1-yl)-2-buten-1-ol], the inhibition at 300 µM is not below 75%.

In the case of `CC=Cc1ccc(OCc2ccccc2)c(OC)c1` [2-methoxy-1-(phenylmethoxy)-4-(1-propenyl)-benzene], the inhibition at 300 µM is not below 50%. Same read-out and setting: the same measure for `CC(=CCC1CC=C(C)C1(C)C)CO` (stereo not shown) [2-methyl-4-(2,2,3-trimethyl-3-cyclopenten-1-yl)-2-buten-1-ol]: not below 50%. The same measure, in the same setting: the same measure for `CCCCCC1=C(C)CCC1=O` [2-pentyl-3-methyl-2-cyclopenten-1-one]: not below 40%; for `CC(C=O)c1ccccc1` (stereo not shown) [2-phenylpropionaldehyde]: not below 50%; for `CC(C)CCCC(C)CCO` (stereo not shown) [3,7-dimethyl-1-octanol]: not below 50%. `CC(C)=CCCC(C)=CC=O` [3,7-dimethyl-2,6-octadienal]: the inhibition at 300 µM was not below 75%. On the same count and under the same terms, the value for `CC(C)=CCCC(C)CC=O` (stereo not shown) [3,7-dimethyl-6-octenal] was not below 50%; that for `C=C(OCC)C1C(C)(C)CC(=O)CC1(C)C` [4-(1-ethoxyvinyl)-3,3,5,5-tetramethylcyclohexanone] was not below 50%. The same measure, in the same setting: the same measure for `CCC=C(C)C(O)CCCCC` (stereo not shown) [4-methyl-3-decen-5-ol]: not below 75%; for `CC(=O)c1c(C)c([N+](=O)[O-])c(C(C)(C)C)c([N+](=O)[O-])c1C` [4-tert-butyl-2,6-dimethyl-3,5-dinitroacetophenone]: not below 40%; for `Cc1ccc(C(C)C)c(O)c1` [5-methyl-2-(1-methylethyl)-phenol]: not below 75%.

For the compound `CC(C)=CCCC(C)CCOCC=O` (stereo not shown) [6,10-dimethyl-3-oxa-9-undecenal], the inhibition at 300 µM is not below 40%.

Consider `CC(=O)c1cc(C(C)(C)C)cc2c1C=CC2(C)C` [6-tert-butyl-1,1-dimethylinden-4-yl methyl ketone], for which the inhibition at 300 µM is not below 40%.

Turning to `CC(=O)C1(C)CC2=C(CCCC2(C)C)CC1C` (stereo not shown) [7-acetyl-1,2,3,4,5,6,7,8-octahydro-1,1,6,7-tetramethyl-naphthalene], the inhibition at 300 µM was not below 75%. For the compound `CC(C)=CCC/C(C)=C/CO` [(E)-3,7-dimethyl-2,6-octadien-1-ol], the inhibition at 300 µM is not below 40%. Regarding `CC(=O)O[C@]1(C)CC[C@@]23C[C@@H]1C(C)(C)[C@@H]2CC[C@H]3C` [cedryl acetate], the inhibition at 300 µM was not below 50%.

For the compound `O=CC=Cc1ccccc1` [cinnamaldehyde], the inhibition at 300 µM was not below 50%. On the same count and under the same terms, the value for `CC(C)[C@H]1CC[C@@H](CO)CC1` [cis-4-isopropylcyclohexylmethanol] was not below 40%. Same read-out and setting: the same measure for `CC1(C)CCCC2(C)C1CCC1(C)OCCC12` (stereo not shown) [dodecahydro-3a,6,6,9a-tetramethylnaphtho[2,1-b]furan]: not below 50%; for `CCOCOC1CCCCCCCCCCC1` [formaldehyde cyclododecyl ethyl acetal]: not below 50%; for `CCCCCCOC(=O)c1ccccc1O` [hexyl salicylate]: not below 40%. Still for that read-out and setting: the same measure for `O=C(OCCc1ccccc1)c1ccccc1O` [phenylethyl salicylate]: not below 75%; for `CC(C=O)Cc1ccc(C(C)C)cc1` (stereo not drawn) [α-methyl-4-(1-methylethyl)-benzenepropanal]: not below 75%; for `CC(C=O)Cc1ccc(C(C)(C)C)cc1` (stereo not drawn) [α-methyl-β-(p-tert-butylphenyl)-propionaldehyde]: not below 50%.

Tested on in the next test: not listed separately
Nature of the test: Sensory test of ability to reduce the odor of 2,6-dimethylpyrazine on cloth. In kind it is in vivo. The following applies: 0.5 μL flavoring agent on 0.5 g cloth containing 1% 2,6-dimethylpyrazine; four panelists; FIG. 3. The protocol:
The abilities to reduce an odor of a pyrazine derivative by the antagonist substances identified in Example 3 were confirmed by a sensory test.
A flavoring agent (0.5 μL) was added to cloth (0.5 g) containing 2,6-dimethylpyrazine (1%), and the odor thereof was evaluated by comparing the strength of odor of 2,6-dimethylpyrazine of the cloth not applied with flavor by the flavoring agent. The sensory evaluation test was performed by four panelists. In the evaluation, a case where a strong odor of 2,6-dimethylpyrazine was smelled was rated as 1, and a case where the odor of 2,6-dimethylpyrazine was not smelled at all was rated as 5.
In the case of `CC=CC(=O)C1=C(C)C=CCC1(C)C` [1-(2,6,6-trimethyl-1,3-cyclohexadien-1-yl)-2-buten-1-one], the “odor of 2,6-dimethylpyrazine inhibited (sensory evaluation, rating 1 strong odor to 5 not smelled)” value was “inhibited”. On to `CCC(O)COC1CCCCC1C(C)(C)C` (stereo not shown) [1-(2-tert-butylcyclohexyloxy)-2-butanol], for which the “odor of 2,6-dimethylpyrazine inhibited (sensory evaluation, rating 1 strong odor to 5 not smelled)” value is given as “inhibited”. Same read-out and setting: the same measure for `C=CCCC(=O)C1=CCCC(C)(C)C1` [1-(5,5-dimethyl-1-cyclohexen-1-yl)-4-penten-1-one]: “inhibited”. Turning to `CC1=CC(C)C(C=O)CC1` (stereo not shown) [2,4-dimethyl-3-cyclohexene-1-carboxyaldehyde], the “odor of 2,6-dimethylpyrazine inhibited (sensory evaluation, rating 1 strong odor to 5 not smelled)” value is “inhibited”. For the compound `CC(=CCC1CC=C(C)C1(C)C)CO` (stereo not shown) [2-methyl-4-(2,2,3-trimethyl-3-cyclopenten-1-yl)-2-buten-1-ol], the “odor of 2,6-dimethylpyrazine inhibited (sensory evaluation, rating 1 strong odor to 5 not smelled)” value is “inhibited”.

As to `CC(=O)C=CC1=C(C)CCCC1(C)C` [4-(2,6,6-trimethyl-1-cyclohexen-1-yl)-3-buten-2-one], the “odor of 2,6-dimethylpyrazine inhibited (sensory evaluation, rating 1 strong odor to 5 not smelled)” value was “inhibited”. For the compound `CCC=C(C)C(O)CCCCC` (stereo not shown) [4-methyl-3-decen-5-ol], the “odor of 2,6-dimethylpyrazine inhibited (sensory evaluation, rating 1 strong odor to 5 not smelled)” value is “inhibited”.

`CC1C/C=C/CCCCCCCCCC(=O)C1` (stereo not shown) [(5E)-3-methylcyclopenta-5-decen-1-one]: the “odor of 2,6-dimethylpyrazine inhibited (sensory evaluation, rating 1 strong odor to 5 not smelled)” value is recorded as “inhibited”.

`CC(C)=CCC/C(C)=C/CO` [(E)-3,7-dimethyl-2,6-octadien-1-ol]: the “odor of 2,6-dimethylpyrazine inhibited (sensory evaluation, rating 1 strong odor to 5 not smelled)” value is recorded as “inhibited”. For the compound `CCOC(=O)[C@]12CCC[C@H]1[C@@H]1CC[C@H]2C1` [ethyl-(3aα,4α,7α,3aα)-octahydro-4,7-methano-3aH-indene-3a-carboxylate], the “odor of 2,6-dimethylpyrazine inhibited (sensory evaluation, rating 1 strong odor to 5 not smelled)” value is given as “inhibited”. The same measure, in the same setting: the same measure for `CCCCCCC(C=O)=Cc1ccccc1` [α-hexylcinnamic aldehyde]: “inhibited”; for `CC(=O)/C(C)=C/C1C(C)=CCCC1(C)C` (stereo not drawn) [α-isomethyl ionone]: “inhibited”.

For the compound `CC(C=O)Cc1ccc2c(c1)OCO2` (stereo not drawn) [α-methyl-3,4-methylenedioxyhydrocinnamic aldehyde], the “odor of 2,6-dimethylpyrazine inhibited (sensory evaluation, rating 1 strong odor to 5 not smelled)” value is listed as “inhibited”.

Consider `CC(C=O)Cc1ccc(C(C)(C)C)cc1` (stereo not drawn) [α-methyl-β-(p-tert-butylphenyl)-propionaldehyde], for which the “odor of 2,6-dimethylpyrazine inhibited (sensory evaluation, rating 1 strong odor to 5 not smelled)” value is listed as “inhibited”. On the same count and under the same terms, the value for `CC(=O)c1ccc2ccccc2c1` [β-methyl naphthyl ketone] was “inhibited”; that for `CCCCCCCC1CCC(=O)O1` (stereo not shown) [γ-undecalactone] was “inhibited”.

For the origin of these results see patent publication US10159655B2, “Agent for inhibiting odor of pyrazine derivatives” (Kao Corporation, priority 2012, dated 2018).
